Target: T1, TLR8 (Homo sapiens, UniProt Q9NR97)
T1 sequence (Q9NR97 27-1041): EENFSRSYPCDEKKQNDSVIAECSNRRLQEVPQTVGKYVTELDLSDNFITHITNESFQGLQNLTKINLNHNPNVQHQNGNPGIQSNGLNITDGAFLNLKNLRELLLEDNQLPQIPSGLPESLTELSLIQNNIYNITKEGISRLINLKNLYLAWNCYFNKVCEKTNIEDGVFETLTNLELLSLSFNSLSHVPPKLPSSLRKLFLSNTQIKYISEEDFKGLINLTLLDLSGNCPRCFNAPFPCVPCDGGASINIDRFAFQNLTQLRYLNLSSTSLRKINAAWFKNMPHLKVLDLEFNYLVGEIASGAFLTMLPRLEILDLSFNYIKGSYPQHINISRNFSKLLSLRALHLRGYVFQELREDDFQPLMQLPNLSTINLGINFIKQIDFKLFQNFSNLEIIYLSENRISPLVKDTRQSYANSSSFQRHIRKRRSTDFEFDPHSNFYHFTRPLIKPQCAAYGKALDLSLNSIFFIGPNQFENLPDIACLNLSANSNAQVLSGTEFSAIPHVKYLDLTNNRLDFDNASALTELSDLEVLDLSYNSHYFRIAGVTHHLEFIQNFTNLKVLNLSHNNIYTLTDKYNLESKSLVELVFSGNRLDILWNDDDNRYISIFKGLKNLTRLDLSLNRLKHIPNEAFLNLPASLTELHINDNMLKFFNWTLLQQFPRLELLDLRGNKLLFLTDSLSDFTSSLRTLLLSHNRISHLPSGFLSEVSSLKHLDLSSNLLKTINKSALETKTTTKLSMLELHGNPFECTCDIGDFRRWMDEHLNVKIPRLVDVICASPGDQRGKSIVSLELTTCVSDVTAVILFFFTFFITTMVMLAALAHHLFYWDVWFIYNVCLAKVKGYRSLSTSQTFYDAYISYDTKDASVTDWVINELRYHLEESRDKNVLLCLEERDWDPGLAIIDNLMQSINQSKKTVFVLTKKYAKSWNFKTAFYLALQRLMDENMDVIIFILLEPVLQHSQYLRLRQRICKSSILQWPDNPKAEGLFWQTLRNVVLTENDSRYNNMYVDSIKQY
Assay: huPBMC TLR8 Antagonist IL-6 TR-FRET Assay
Assay type: cell-based
Set-up: Fresh blood was collected from normal human donors; endogenous in cells; host or cells: human PBMCs from fresh donor blood
Conditions: human PBMCs stimulated with ssRNA40 1 μg/ml (DOTAP), 14-16 hrs; IL-6 TR-FRET read-out
In short: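 Human PBMCs from fresh donor blood (150,000 cells/well) stimulated 14–16 h at 37 °C with DOTAP-complexed ssRNA40 (final 1 μg/ml for TLR8, 10 μg/mL for TLR7) or ODN2216 (final 0.3 μM, TLR9), 0.25% DMSO, ten-point 1/3 compound dilutions. Supernatant IL-6 read by HTRF (TLR8); IFNα by IFNα2b AlphaLISA (TLR7/TLR9).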

With `Cc1nn(CC23CCC(N4CCCC4)(CC2)CC3)c2c1CN(c1ccnc(-c3ccccc3)c1)CC2` [compound 85, 3-methyl-5-(2-phenylpyridin-4-yl)-1-((4-(pyrrolidin-1-yl)bicyclo[2.2.2]octan-1-yl)methyl)-4,5,6,7-tetrahydro-1H-pyrazolo[4,3-c]pyridine] as the compound, how does the IC50 read?
The IC50 was 224 nM.

Which IC50 does the source give for `Cc1cc(N2CCc3c(c(C)nn3CC34CCC(N5CCOCC5)(CC3)CC4)C2)c2cnn(C)c2n1` [Compound No. 59, 4-(4-((5-(1,6-dimethyl-1H-pyrazolo[3,4-b]pyridin-4-yl)-3-methyl-4,5,6,7-tetrahydro-1H-pyrazolo[4,3-c]pyridin-1-yl)methyl)bicyclo[2.2.2]octan-1-yl)morpholine] here?
Its IC50 is 52 nM.

For `Cc1nn(CC23CCC(N)(CC2)CC3)c2c1CN(c1ccnc(-c3ccc(C#N)cc3)c1)CC2` [Compound No. 84, 4-(4-(1-((4-aminobicyclo[2.2.2]octan-1-yl)methyl)-3-methyl-6,7-dihydro-1H-pyrazolo[4,3-c]pyridin-5(4H)-yl)pyridin-2-yl)benzonitrile], which IC50 is on record?
Its IC50 is 831 nM.

With `Cc1cc(N2CCc3c(c(C)nn3CC34CCC(NC(C)CO)(CC3)CC4)C2)c2cnn(C)c2n1` (stereo not shown) [compound 56, 2-((4-((5-(1,6-dimethyl-1H-pyrazolo[3,4-b]pyridin-4-yl)-3-methyl-4,5,6,7-tetrahydro-1H-pyrazolo[4,3-c]pyridin-1-yl)methyl)bicyclo[2.2.2]octan-1-yl)amino)propan-1-ol] as the compound, how does the IC50 read?
The IC50 was 292 nM.

For `Cc1cc(N2CCc3c(c(C)nn3CC34CCC(N5CCCC5)(CC3)CC4)C2)c2cnn(C)c2n1` [Compound No. 58, 5-(1,6-dimethyl-1H-pyrazolo[3,4-b]pyridin-4-yl)-3-methyl-1-((4-(pyrrolidin-1-yl)bicyclo[2.2.2]octan-1-yl)methyl)-4,5,6,7-tetrahydro-1H-pyrazolo[4,3-c]pyridine], which IC50 is on record?
Its IC50 is 53 nM.

For `Cc1cc(N2CCc3c(c(C)nn3CC34CCC(N5C[C@H](O)[C@@H](O)C5)(CC3)CC4)C2)c2cnn(C)c2n1` [compound 80, (3S,4S)-1-(4-((5-(1,6-dimethyl-1H-pyrazolo[3,4-b]pyridin-4-yl)-3-methyl-4,5,6,7-tetrahydro-1H-pyrazolo[4,3-c]pyridin-1-yl)methyl)bicyclo[2.2.2]octan-1-yl)pyrrolidine-3,4-diol], which IC50 is on record?
Its IC50 is 466 nM.

Which IC50 does the source give for `COCCNC12CCC(Cn3nc(C)c4c3CCN(c3cc(C)nc5c3cnn5C)C4)(CC1)CC2` [Compound No. 69, 4-((5-(1,6-dimethyl-1H-pyrazolo[3,4-b]pyridin-4-yl)-3-methyl-4,5,6,7-tetrahydro-1H-pyrazolo[4,3-c]pyridin-1-yl)methyl)-N-(2-methoxyethyl)bicyclo[2.2.2]octan-1-amine] here?
Its IC50 is 31 nM.

Source: patent US20240376099A1, “COMPOUNDS AND COMPOSITIONS AS INHIBITORS OF ENDOSOMAL TOLL-LIKE RECEPTORS” (Novartis AG, priority 2016, published 2024)
